# Target: T1, HaHSL (Falsihalocynthiibacter arcticus, UniProt A0A126UZB4)
# T1 construct: gene RC74_09005; full-length ORF (789 bp); mass peak 31,740; monomer; catalytic Ser138, Glu216, His244
# Experiment: p-nitrophenol release at […] nm, Lineweaver-Burk
# Format: biochemical
# Conditions: free enzyme; 20 mM Tris-HCl, 100 mM NaCl, pH 7.4 (spectroscopic analyses); standard assay pH 8.0, 25 °C
# T1 sequence (A0A126UZB4 entry or part of it): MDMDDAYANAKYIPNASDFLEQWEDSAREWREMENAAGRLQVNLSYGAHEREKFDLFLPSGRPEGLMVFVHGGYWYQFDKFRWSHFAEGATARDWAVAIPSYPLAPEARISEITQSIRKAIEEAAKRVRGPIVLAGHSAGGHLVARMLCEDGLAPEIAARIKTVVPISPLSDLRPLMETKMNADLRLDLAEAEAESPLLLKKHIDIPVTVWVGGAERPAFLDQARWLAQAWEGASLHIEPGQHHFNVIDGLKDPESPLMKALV
row,Km,Compound
1,2320 ± 630 µM,CCCCCC(=O)Oc1ccc([N+](=O)[O-])cc1 [p-nitrophenyl hexanoate]
2,1970 ± 530 µM,CCCC(=O)Oc1ccc([N+](=O)[O-])cc1 [p-nitrophenyl butyrate]
3,210 µM,CC(=O)Oc1ccc([N+](=O)[O-])cc1 [p-nitrophenyl acetate]
